In paper PMC4536990, “Efficacy of the antimicrobial peptide TP4 against Helicobacter pylori infection: in vitro membrane perturbation via micellization and in vivo suppression of host immune responses in a mouse model” (Oncotarget, 2015):
Where a SMILES comes first, the peptide text is derived from it.

Key:
[1] = system: New Zealand white rabbits; assay: Eye irritation test in rabbits (OECD 405); assay type: in vivo; conditions: for Abnormality iris grade / Chemosis grade / Conjunctivae Redness grade / Corneal opacity grade: OECD 405 grading
Description: (§1) Figure 11 TP4 toxicity safety evaluations in New Zealand albino rabbits and C3H/HeN mice (A) Eye irritation test: Ocular appearances of controls, and rabbits treated with TP4 or SDS for 7 days. […] (B) Dermal toxicity: appearances of the skin of mice treated with TP4 at 48 hr post-exposure.
(§2) Oral toxicity: Acute oral toxicity was assessed in C3H/HeN mice with 6 animals per group, by single oral administration of TP4 (125 mg/kg). After dose administration, the animals were kept under observation for a minimum of 48 hr. The mortality rate and clinical signs were recorded. Sub-acute oral toxicity was assessed by administering 600 μg dose/day for 14 days. During dose administration, the animals were observed every day for any signs of toxicity. After the treatment period, the animals were kept under observation for 14 days. The morbidity, mortality, and other clinical signs were recorded and assessed. Dermal Toxicity was assessed by topical application of TP4 at 10 times the effective dose to skin at the dorsal side of mice. After administration, the animals were kept under observation for a minimum of 48 h. Clinical signs were noted if the animals were in the morbid stage or presented with any abnormalities. Eye irritation test in New Zealand white rabbits: Healthy young adult rabbits were used in the experiment. Eyes were treated with TP4, PBS (vehicle control), or 0.1% SDS (positive control). A repeated dose of 1 mg/kg was administered every day for 7 days. During the treatment period, the eyes were examined on days 1, 3, 5, and 7, and allowed to recover until day 14. Clinical signs were recorded during the test period, and grades were assigned for ocular reactions observed during each examination. All procedures, care, and handling of rabbits were approved by the laboratory animal ethics committee of National Taiwan Ocean University.

[2] = system: human and mouse cell lines; conditions: cited from earlier work
Excerpt: (§3) A more complete understanding of how these short amphipathic cationic AMPs bring about bacterial cell death and host immunomodulation is needed for further optimization and development for clinical applications.

[3] = cited from earlier work
Excerpt: as §3

H. pylori [4] = assay type: cell-based, Helicobacter pylori; conditions: 24 h
Description: Frozen cultures were streaked onto BHI agar with 10% sheep blood, and incubated for 24 hr under microaerophilic conditions. H. pylori cells undergoing exponential growth were suspended in sterile phosphate-buffered saline (PBS), and adjusted to 0.05 OD using BHI broth; the resulting inoculum was dispensed onto a microtitre plate. Peptide TP4 was prepared at various concentrations (0.04 to 50 μg mL^−1) using PBS. Antibiotic resistant clinical isolate CI-HC-028 and three reference strains were used for susceptibility testing. All plates were incubated under microaerophilic conditions at 37°C overnight. The MIC was defined as the lowest concentration of the drug at which there was no visible growth. For quality control and comparative analyses, we examined the susceptibility of all four H. pylori strains to the antibiotics amoxicillin, clarithromycin, and metronidazole (Sigma Chemical Co., St. Louis, MO).

C3H/HeN mice [5] = assay: Sub-acute oral toxicity; assay type: in vivo; conditions: three-fold therapeutic dose (600 μg dose/day) orally for 14 days, observed days 1 to 28, n=6
Description: Sub-acute oral toxicity: Three-fold therapeutic doses were orally administered to mice for 14 days.
as §2, with “A repeated dose of 1 mg/kg was administered every day for 7 days. During the treatment period, the eyes were examined on days 1, 3, 5, and 7, and allowed to recover until day 14.” left out, “All procedures, care, and handling of rabbits were approved by the laboratory animal ethics committee of National Taiwan Ocean University.” left out

C3H/HeN mice [6] = assay: Dermal toxicity; assay type: in vivo
Description: as §1, §2

C3H/HeN mice [7] = assay: Acute oral toxicity; assay type: in vivo; conditions: single oral dose 125 mg/kg, n=6, observed 24 hours
Description: as §2, with “After dose administration, the animals were kept under observation for a minimum of 48 hr.” left out, “All procedures, care, and handling of rabbits were approved by the laboratory animal ethics committee of National Taiwan Ocean University.” left out

H. pylori [8] = assay: Transmission electron microscopy of H. pylori morphology; assay type: cell-based, Helicobacter pylori; conditions: 1x MIC, 2 hr
Excerpt: Figure 4 Electron micrographs reveal that TP4 causes membrane disruption in H. pylori via micellization Approximately 6 × 10^7 H. pylori cells were exposed to PBS (A, D), 1x MIC amoxicillin (B, E), or 1x MIC TP4 peptide (C, F) for 2 hr. Next, thin sections were examined under a transmission electron microscope (TEM) at low (1,100X; A-C) or high (5,500X; D-F) magnification. […] (E) Amoxicillin-treated cells retained intact membranes, but the periplasmic space was swollen in some locations.
Transmission electron microscopy (TEM) was used to examine the mechanism of TP4 action on H. pylori, overall cell morphology, TP4 translocation into H. pylori, and binding of TP4 to internal constituents. H. pylori overnight cultures from BHI-blood agar plates were collected, and 0.1 OD inocula were incubated with TP4, Amoxicillin, and/or PBS (PBS only: negative control). Following drug exposure, H. pylori cells were collected and successively washed twice in PBS by centrifugation and resuspension. The cells were then fixed and processed for TEM using previously described methods. […] Each grid was examined under the same settings. Images were recorded with a 4MP SPOT Insight charge-coupled-device (CCD) camera.

H. pylori outer membrane = assay: NPN uptake membrane perturbation assay; assay type: cell-based, Helicobacter pylori; conditions: 6 h incubation, 22μg mL−1 NPN
Description: Figure 3 TP4 induces membrane permeation of H. pylori TP4 rapidly permeabilizes the H. pylori outer membrane in a dose-dependent manner. Membrane permeabilization was examined by measuring fluorescence due to uptake of 1-N-phenyl-naphthylamine (NPN). Approximately 5 × 10^6 H. pylori (Hp) cells were cultured in the presence of TP4 or amoxicillin for 6 h. Bacterial cells alone, or cells incubated with NPN and control peptide, were used as negative controls. NPN fluorescence intensity was recorded as a correlate of membrane permeation. (B) Zeta-potential (ζ) of H. pylori in the presence/absence of TP4. Striped bars: H. pylori grown in blood agar plates; white bar: liquid culture. The data shown are means ± SEM of two independent experiments
The NPN membrane permeation assay was performed as described previously. Briefly, a starter culture of H. pylori was grown overnight to 0.05 OD. The adjusted culture was aliquoted into different tubes with or without TP4/amoxicillin, and incubated at 37°C for 360 minutes under microaerophilic conditions. […] NPN fluorescence intensity was recorded using a Synergy HT (BioTek, U.S.A) fluorescence ELISA reader, and correlated to membrane potential and permeation. Experiments were performed in triplicate, and the results are expressed as means with standard error.

H. pylori CI-HC-028 = assay: Time-dependent killing of multidrug resistant clinical isolate; assay type: cell-based, Helicobacter pylori; conditions: CI-HC-028, at MIC
Description: Control peptide and H. pylori alone were used as controls. The cultures were monitored for 24 h, and aliquots were taken at 1, 3, 6, 12, and 24 h for bacterial enumeration. The data are means ± SEM. […] Approximately, 1 × 10^5 cells were incubated for 1 h, and then incubated with the MIC of TP4, amoxicillin, metronidazole, or clarithromycin (AMOX, METZ, and CLRN, respectively). The cultures were monitored for 24 h, and aliquots taken at 1, 3, 6, 12, and 24 h to determine surviving c.f.u. The data are means ± SEM
Overnight cultures of H. pylori were scraped and adjusted to OD 0.05, and 1 ml/tube inocula were prepared with BHI broth. Solutions of TP4 or clinical antibiotics were prepared with concentrations corresponding to their respective MIC, and PBS was used as a control. The tubes were incubated without shaking at 37°C under microaerophilic conditions, and sample aliquots were taken at 0, 1, 3, 6, 12, and 24 hr. The samples were serially diluted, and appropriate dilutions were plated in triplicate onto blood agar plates for bacterial counts. The results were expressed as mean log (c.f.u. mL^−1) with standard error.

[9] = system: metronidazole- and clarithromycin-resistant H. pylori strains; assay: Synergy of TP4 with antibiotics, in vitro dose-OD fall kinetics; assay type: cell-based, Helicobacter pylori; conditions: TP4 plus antibiotic
Description: (§4) Animals were sacrificed at each passage, and the MIC of TP4, amoxicillin, metronidazole, and clarithromycin were recorded for 10 serial passages. Passage points in the curves are means ± SEM. (MICs: standard MIC value; MICp: passage-induced MIC). (B) In vitro dose-OD fall kinetics were examined for TP4 alone and in combination with amoxicillin, metronidazole, or clarithromycin. […] The data shown are means ± SEM of two independent experiments
Combination therapy often enhances antibiotic efficacy and mitigates the frequency at which drug resistance emerges. To determine the suitability of TP4 for combination therapy, we examined in vitro dose-OD fall kinetics of TP4 in combination with AMOX, CLRN, or METZ antibiotics; these three antibiotics are traditionally used as the first line of defense against H. pylori.

H. pylori [10] = assay: Induction of drug resistance by sub-inhibitory passaging (in vitro / in vivo passage); assay type: cell-based, Helicobacter pylori; conditions: sub-inhibitory doses, 10 serial passages
Description: as §4
The drug resistance of bacteria to TP4 and clinical antibiotics was determined by in vitro culturing of H. pylori in sub-inhibitory concentrations of TP4 and antibiotics, followed by repeated in vivo passaging. H. pylori was administered to C3H/HeN mice and allowed to colonize the gut; subsequently pure colonies of H. pylori were isolated on EYE selective media. This step was repeated for 10 passages. During each passage, the MICs of TP4 and the conventional antibiotics were determined. All procedures, care, and handling of mice were approved by the laboratory animal ethics committee of National Taiwan Ocean University.

Question: With CC[C@H](C)[C@H](NC(=O)[C@H](C)NC(=O)[C@H](CCCCN)NC(=O)CNC(=O)[C@H](C)NC(=O)[C@H](CO)NC(=O)[C@H](Cc1ccccc1)NC(=O)[C@H](CC(C)C)NC(=O)CNC(=O)CNC(=O)[C@@H](NC(=O)[C@@H](NC(=O)[C@H](Cc1c[nH]cn1)NC(=O)[C@H](Cc1c[nH]cn1)NC(=O)[C@@H](NC(=O)[C@@H](N)Cc1ccccc1)[C@@H](C)CC)[C@@H](C)CC)[C@@H](C)CC)C(=O)N[C@@H](Cc1c[nH]cn1)C(=O)N[C@@H](CCCNC(=N)N)C(=O)N[C@@H](CC(C)C)C(=O)N[C@H](C(=O)N[C@@H](CCCNC(=N)N)C(=O)N[C@@H](CCCNC(=N)N)C(=O)N[C@@H](CCCNC(=N)N)C(=O)N[C@@H](CCCNC(=N)N)C(=O)N[C@@H](CCCNC(=N)N)C(N)=O)[C@@H](C)CC [TP4] (H-FIHHIIGGLFSAGKAIHRLIRRRRR-NH2) as the compound, how does the Abnormality iris grade ([1]; Day 1) read?
Answer: 0

Question: And the Chemosis grade ([1]; Day 1)?
Answer: 0

Question: And the “Conjunctivae Redness grade” value ([1]; Day 1)?
Answer: 0

Question: What about the Corneal opacity grade ([1]; Day 1, rabbit eye, daily for 7 days (TP4 1 mg/kg; SDS 0.1%)) of the same compound?
Answer: 0

Question: And the Abnormality iris grade ([1]; Day 3)?
Answer: 0

Question: And the Chemosis grade ([1]; Day 3)?
Answer: 0.1

Question: And the “Conjunctivae Redness grade” value ([1]; Day 3)?
Answer: 0

Question: What about the Corneal opacity grade ([1]; Day 3) of the same compound?
Answer: 0

Question: And the Abnormality iris grade ([1]; Day 5)?
Answer: 0

Question: And the Chemosis grade ([1]; Day 5)?
Answer: 0.1

Question: What about the “Conjunctivae Redness grade” value ([1]; Day 5) of the same compound?
Answer: 0.5

Question: And the Corneal opacity grade ([1]; Day 5)?
Answer: 0.1

Question: And the Abnormality iris grade ([1]; Day 7)?
Answer: 0

Question: What about the Chemosis grade ([1]; Day 7) of the same compound?
Answer: 0.1

Question: And the “Conjunctivae Redness grade” value ([1]; Day 7)?
Answer: 0

Question: And the Corneal opacity grade ([1]; Day 7)?
Answer: 0.3

Question: What about the Abnormality iris grade ([1]; Recovery, Day 14) of the same compound?
Answer: 0

Question: And the Chemosis grade ([1]; Recovery, Day 14)?
Answer: 0

Question: And the “Conjunctivae Redness grade” value ([1]; Recovery, Day 14)?
Answer: 0

Question: What about the Corneal opacity grade ([1]; Recovery, Day 14) of the same compound?
Answer: 0

Question: What about the ocular appearance ([1]; rabbits treated for 7 days, observed daily) of the same compound?
Answer: no ocular lesions were detected

Question: And the “toxicity against cell lines” value [2]?
Answer: low toxicity against human and mouse cell lines

Question: And the hemolytic activity [3]?
Answer: low hemolytic activity

Question: And the MIC (H. pylori [4])?
Answer: 1.5 to 3 µg/mL

Question: And the “sub-acute oral toxicity, clinical signs” value (C3H/HeN mice [5])?
Answer: did not induce clinical complications in mice

Question: And the “skin appearance, lesions” value (C3H/HeN mice [6]; 48 hr post-exposure, after residue removal, 125 mg/kg TP4 or 20% SDS, n=12 per group)?
Answer: No obvious lesions

Question: What about the “dermal toxicity, mortality or damaging effects” value (C3H/HeN mice [6]; topical, 10 times the effective dose, 14-day observation) of the same compound?
Answer: did not result in mortality or damaging effects

Question: What about the “acute oral toxicity, clinical signs and vital organs” value (C3H/HeN mice [7]) of the same compound?
Answer: did not exhibit any abnormal clinical signs

Question: Which “membrane morphology by TEM” value (H. pylori [8]) does the source give for CC1(C)S[C@@H]2[C@H](NC(=O)[C@H](N)c3ccc(O)cc3)C(=O)N2[C@H]1C(=O)O [amoxicillin] here?
Answer: loose outer membranes

Question: What about the “NPN fluorescence intensity (membrane permeabilization)” value (H. pylori outer membrane) of the same compound?
Answer: slight increase in fluorescence intensity at higher doses

Question: What about the “killing within 24 hr” value (H. pylori CI-HC-028) of the same compound?
Answer: 90%

Question: What about the “reduction of the MIC of the antibiotic in combination with TP4” value [9] of the same compound?
Answer: one-fourth

Question: What about the “drug resistance index MICp/MICs” value (H. pylori [10]) of the same compound?
Answer: increased slightly after passage 6, and remained constant thereafter
